Marks after values point to notes of the source that are not given here.
How the values were obtained:
[1] = tested on: hair cell markers Atoh1, Pou4f3, Myo7A in gentamicin-damaged organ of Corti explants; experiment: Organ of Corti explant, gene expression analysis after ototoxic (gentamicin) damage; format: cell-based, mice; settings: 5 μM after gentamicin (100 μM) damage, n = 11
Protocol: A variation of the organ of Corti organotypic explant culture is used to model hair cell regeneration in response to subsequent compound treatment after ototoxic damage. This damage model is carried out according to the method described in Korrapati et al., PLOSOne, 2013, 8(8), e73276 where a 95% reduction in mid-apical hair cells was reported. On Day 0, to damage and selectively kill hair cells within the organ of Corti explant, aminoglycoside treatment (gentamicin (100 μM)) is added for 18-24 hours. On Day 1, gentamicin is removed and treatment with Compound 1, Isomer 2 and Compound 2, Isomer 2 at 5 μM began. Explant culture continues for 4 days total at which point the culture is prepared for the qRT-PCR protocol described above. Visible confirmation of gentamicin-induced damage is easily observed between cultures treated with negative control compounds. However, quantitative measurement for the response to Compound 1, Isomer 2 and Compound 2, Isomer 2 treatment following ototoxic damage obtained by qRT-PCR measured increases in gene expression for prosensory hair cell markers Atoh1 and Pou4f3 and the hair cell marker Myo7A.
Data represent the percent increase in gene expression relative to negative control-treated samples with the gentamicin-induced hair cell damage. (*, significant difference from negative control, p<0.05)

mAtoh1 = experiment: Induction of mAtoh1 expression in otic spheres (qRT-PCR); format: cell-based, mice; settings: 7 days, fold-induction relative to DMSO control, ± SEM
Protocol: Generally, organ of Corti cell isolation is carried out on Day 0, largely by the method in Oshima et al., Methods Mol Biol., 2009; 493: 141-162. Cell culture and propagation are carried out for 3-4 days. Cell plating and test compound treatment takes place on Day 3 or 4. Attachment and differentiation is allowed to take place over the next 7 days. On Days 10 or 11, cell lysis and RNA isolation is carried out. TagMan qRT-PCR is carried out on Day 12 and the results analyzed on Days 13-15 for Atoh1 and Tbp1 expression.
Surrounding tissue from the petrous portion of the temporal bone are removed from 1 to 4 day-old postnatal mice (transgenic strain: mAtoh1-driven nGFP; Lumpkin E A, et al., Gene Expr Patterns, 2003; (36): 389-95 of both sexes. The conch shaped cochlea is separated from the vestibular system using forceps. At this stage of development, the bony labyrinth is not completely calcified and is easily dissected using forceps. Carefully open the bony labyrinth of the cochlea and remove the spiral ligament and attached organ of Corti coiled together along the spiral of the modiolus by unwinding apically from the modiolus. Starting at the base, separate the spiral ligament from the organ of Corti using fine forceps.
Transfer the dissected organ of Corti (OC) into individual 1.5 ml tubes filled with 850 ice cold HBSS. Transfer up to 12 OC tissues into the same tube, Quick-spin down OC tissues and remove the HBSS. Disassociate the cells by adding 100 μl pre-warmed TrypLE™ Select (Life Technologies) and incubate at 37° C. for 13 min. Quick spin down dissociated OC tissues. Remove TrypLE™ Select. Add 100 μl of Medium A (DMEM/F12, N2 supplement (LifeTechnologies), B27 supplement (LifeTechnologies), ampicillin (50 μg/ml) and Fungizone (LifeTechnologies), EGF (20 ng/ml), bFGF (10 ng/ml), IGF-1 50 ng/ml), and heparan sulfate (50 ng/ml)). The dissected and digested tissue is then triturated with a P200 pipette tip. Remove any cell aggregates and debris; transfer the cell suspension and wash through a pre-wetted 70 μm cell strainer to pool the cell suspension in a single fresh culture tube. Rinse dissociation tubes and the cell strainer with sufficient Medium A and pool with the cell suspension. Count cell density with hemocytometer or Countess® (Life Technologies). Add fresh Medium A to cell suspension to achieve a final plating density of 1.0E5 cell/ml and plate into ultra-low attachment cultureware, T-75 (Greiner).
The dissociated, single cells are cultured in an ultra-low attachment cultureware, (Greiner) in Medium A for 3 to 4 days in a 5% CO2 humidified incubator at 37° C. to obtain clonally grown spheres, termed first generation spheres, from the floating cells. If cells stick to the non-adherent dishes during the culture period they can be dislodged by gentle mixing.
After culturing the spheres for 3-4 days, visually count the spheres by microscope to standardize the seeding density of otic spheres per ml for this step. Collect the cells by centrifugation and re-suspend spheres in Basic Medium at a concentration of approximately 2000 spheres per ml. Seed the spheres in a volume of 150 μl per well of a cell culture-treated 96 well plate to obtain approximately 300 spheres per well. Treat the spheres with experimental agents in quadruplicate at a final volume of 200 μl in Basic Medium (DMEM/F12, N2 supplement (LifeTechnologies) B27 supplement (LifeTechnologies), ampicillin (50 μg/ml) and Fungizone (LifeTechnologies). Culture the treated spheres for 7 days in a humidified temperature controlled incubator at 5% CO2, 37° C. Remove medium and proceed with RNA extraction.
Add buffer RLT plus (Qiagen) supplemented with 1% Beta-mercaptoethanol, 175 μl per well. Add 2.5 μl of 4 ng/μl of RNA carrier (RNeasy® Plus Micro Kit; Qiagen) diluted in Buffer RLT Plus into each well before RNA extraction. Total RNA is extracted using the RNeasy® Plus Micro Kit (Qiagen) according to the manufacturer's instructions. […]

Row | SMILES | % Induction Over Control-treated Damaged Organ of Corti, Atoh1 (Mean ± SEM) [1] | % Induction Over Control-treated Damaged Organ of Corti, Myo7A (Mean ± SEM) [1] | % Induction Over Control-treated Damaged Organ of Corti, Pou4f3 (Mean ± SEM) [1] | RQ at 10 nM (Atoh1 expression) (mAtoh1) | RQ at 100 nM (Atoh1 expression) (mAtoh1) | RQ at 1 μM (Atoh1 expression) (mAtoh1)
1 | COc1ccc2c(c1)N1CCC(C)(C)C1=CC(=O)C2NC(=O)[C@H](C)NC(=O)CCC(F)(F)F (single isomer, unassigned) [Compound 1, Isomer 2] | 242 ± 16; % | 102 ± 18; 0.0522% | 114 ± 25; <0.05* % | 1.43 ± 0.17 | 1.76 ± 0.17 | 1.64 ± 0.13
2 | C[C@H](NC(=O)CCC(F)(F)F)C(=O)NC1C(=O)C=C2N(CCC2(C)C)c2ncccc21 (single isomer, unassigned) [Compound 2, Isomer 2] | 169 ± 24; <0.05* % | 52 ± 15; not signif. % | 28 ± 11; 0.0633% | 1.14 ± 0.07 | 1.21 ± 0.13 | 1.57 ± 0.11

— US10450317B2, “Notch pathway signaling inhibitor compounds” (Eli Lilly and Company, priority 2015, dated 2019)
